Measurements from the NIST ThermoML archive (doi:10.1016/j.fluid.2008.06.011).
± gives the expanded uncertainty stated by the source.

Assay: excess molar enthalpy (molar enthalpy of mixing); xn = mol fraction of the nth substance listed
Conditions: 298.15 K, 101 kPa, Liquid, Calvet calorimetry

## CCCCCCCCCC [decane] + CCCO
x2 = 0.1544
  excess molar enthalpy: 0.158 ± 0.00335 kcal/mol
x2 = 0.1615
  excess molar enthalpy: 0.162 ± 0.00359 kcal/mol
x2 = 0.2718
  excess molar enthalpy: 0.184 ± 0.00406 kcal/mol
x2 = 0.3642
  excess molar enthalpy: 0.189 ± 0.00406 kcal/mol
x2 = 0.4594
  excess molar enthalpy: 0.188 ± 0.00406 kcal/mol
x2 = 0.5576
  excess molar enthalpy: 0.176 ± 0.00382 kcal/mol
x2 = 0.6121
  excess molar enthalpy: 0.165 ± 0.00359 kcal/mol
x2 = 0.6669
  excess molar enthalpy: 0.151 ± 0.00335 kcal/mol
x2 = 0.7249
  excess molar enthalpy: 0.136 ± 0.00287 kcal/mol
x2 = 0.7574
  excess molar enthalpy: 0.125 ± 0.00263 kcal/mol
x2 = 0.7667
  excess molar enthalpy: 0.123 ± 0.00263 kcal/mol
x2 = 0.8113
  excess molar enthalpy: 0.107 ± 0.00239 kcal/mol
x2 = 0.8517
  excess molar enthalpy: 0.0894 ± 0.00191 kcal/mol
x2 = 0.885
  excess molar enthalpy: 0.0741 ± 0.00167 kcal/mol
x2 = 0.9219
  excess molar enthalpy: 0.0535 ± 0.0012 kcal/mol
x2 = 0.9602
  excess molar enthalpy: 0.0292 ± 0.000717 kcal/mol
x2 = 0.9832
  excess molar enthalpy: 0.0103 ± 0.000478 kcal/mol
